# Earlier results as cited in US8663696B2, “Film delivery system for tetrahydrolipstatin” (MonoSol Rx, LLC, priority 2007, dated 2014).
# How the values were obtained:
# lipase = conditions: background statement on the drug
# [1] = natural crystalline state
smiles,measurement,setting,value
"CCCCCCCCCCC[C@@H](C[C@@H]1OC(=O)[C@H]1CCCCCC)OC(=O)[C@H](CC(C)C)NC=O [Tetrahydrolipstatin, (2S,3S,5S)-5-[(S)-2-formamido-4-methyl-valeranyloxy]-2-hexyl-3-hexadecanoic acid lactone]",absorption of dietary fat blocked,lipase,approximately 30%
same,water solubility,[1],very water-insoluble
